From US12240862B2, “Inhibitors of peptidylarginine deiminases” (Gilead Sciences, Inc., priority 2020, dated 2025) come the findings set out here.

pIC50: −log10 of the molar value.

T1 sequence (Q9UM07 2-663): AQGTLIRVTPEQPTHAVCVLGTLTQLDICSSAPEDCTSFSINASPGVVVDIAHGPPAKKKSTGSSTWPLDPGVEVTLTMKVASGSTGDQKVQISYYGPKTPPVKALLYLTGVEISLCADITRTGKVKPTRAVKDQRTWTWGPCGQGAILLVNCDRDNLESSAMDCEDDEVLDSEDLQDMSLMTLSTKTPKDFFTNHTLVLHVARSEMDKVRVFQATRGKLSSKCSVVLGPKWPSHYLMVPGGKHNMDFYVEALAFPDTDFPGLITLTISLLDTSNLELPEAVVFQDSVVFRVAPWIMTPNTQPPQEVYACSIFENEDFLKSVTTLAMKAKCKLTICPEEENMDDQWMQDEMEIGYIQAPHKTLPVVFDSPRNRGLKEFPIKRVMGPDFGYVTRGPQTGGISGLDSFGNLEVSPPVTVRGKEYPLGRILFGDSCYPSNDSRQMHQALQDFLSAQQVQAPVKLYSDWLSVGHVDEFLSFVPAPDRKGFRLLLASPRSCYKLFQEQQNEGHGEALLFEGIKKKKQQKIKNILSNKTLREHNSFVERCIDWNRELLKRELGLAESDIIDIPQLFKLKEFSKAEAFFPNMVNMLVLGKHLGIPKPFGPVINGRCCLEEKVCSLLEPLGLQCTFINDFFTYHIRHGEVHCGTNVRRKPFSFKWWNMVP

The experiment has as its target T1, human PAD4 (Homo sapiens, UniProt Q9UM07).
T1 construct: human PAD4 (NM_012387), A2P663, was PCR amplified; His-SUMO (N, cleaved yes); made in house; host or cells: E. coli BL21(DE3)
The experiment is described as follows: In vitro PAD4 BAEE biochemical assay. Conditions: human PAD4, BAEE substrate; 5 nM PAD4, 2 mM calcium chloride, 3 mM BAEE; geometric mean of multiple experiments. The procedure, abridged:
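Tag-free recombinant hPAD4 (5 nM), 2 mM CaCl2, 3 mM BAEE, 50 mM MOPS pH 7.6, 2 mM DTT; 30 min compound preincubation, 2 h reaction, all 25 °C. EDTA quench; ammonia read via o-phthalaldehyde amine coupling, 1 h.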
Turning to `COc1cc(C(=O)N2CCC[C@@H](N)C2)cc2nc(-c3cc4ccc([C@@H](C)N(C)C(C)=O)nc4n3CC3CC3)c(C)n12` [Example 187, ~{N}-[(1~{R})-1-[2-[7-[(3~{R})-3-aminopiperidine-1-carbonyl]-5-methoxy-3-methylimidazo [1,2-a]pyridin-2-yl]-1-(cyclopropylmethyl)pyrrolo [2,3-b]pyridin-6-yl]ethyl]-~{N}-methylacetamide], the pIC50 was 6.52. Turning to `COc1cc(C(=O)N2[C@H]3CC[C@@H]2[C@H](N)C3)cc2nc(-c3cc4ccc([C@@H](C)NC(=O)NC5CCOC5)nc4n3CC3CC3)c(C)n12` (stereo partly shown) [Example 231, 1-[(1~{R})-1-[2-[7-[(1~{R},2~{R},4~{S})-2-amino-7-azabicyclo[2.2.1]heptane-7-carbonyl]-5-methoxy-3-methylimidazo [1,2-a]pyridin-2-yl]-1-(cyclopropylmethyl)pyrrolo [2,3-b]pyridin-6-yl]ethyl]-3-(oxolan-3-yl)urea], the pIC50 is 7.19.

Consider `COc1cc(C(=O)N2C[C@H]3CC[C@@H]2[C@@H](N)C3)cc2nc(-c3cc4ccc(N(C(F)F)S(C)(=O)=O)nc4n3CC3CC3)c(C)n12` [Example 368, ~{N}-[2-[7-[(1~{R},4~{S}, 6~{S})-6-amino-2-azabicyclo[2.2.2]octane-2-carbonyl]-5-methoxy-3-methylimidazo[1,2-a]pyridin-2-yl]-1-(cyclopropylmethyl)pyrrolo [2,3-b]pyridin-6-yl]-~{N}-(difluoromethyl) methanesulfonamide], for which the pIC50 is 4.36. Next, `COc1cc(C(=O)N2CCC[C@@H](N)C2)cc2nc(-c3cc4ccc(C5CC5C(=O)N(C)C)nc4n3CC3CC3)c(C)n12` (stereo partly shown) [Example 533, 2-[2-[7-[(3~{R})-3-aminopiperidine-1-carbonyl]-5-methoxy-3-methylimidazo[1,2-a]pyridin-2-yl]-1-(cyclopropylmethyl)pyrrolo[2,3-b]pyridin-6-yl]-~{N},~{N}-dimethylcyclopropane-1-carboxamide]: 6.03. For `COc1cc(C(=O)N2C[C@H](N)CC[C@@H]2C)cc2nc(-c3cc4ccc(N(C(F)F)S(C)(=O)=O)nc4n3CC34CC(C3)C4)c(C)n12` [Example 496, ~{N}-[2-[7-[(2~{S}, 5~{R})-5-amino-2-methylpiperidine-1-carbonyl]-5-methoxy-3-methylimidazo[1,2-a]pyridin-2-yl]-1-(1-bicyclo [1.1.1]pentanylmethyl)pyrrolo [2,3-b]pyridin-6-yl]-~{N}-(difluoromethyl) methanesulfonamide], the pIC50 was 6.38. On to `COc1cc(C(=O)N[C@H]2CCCCNC2)cc2nc(-c3cc4ccc(N(C(F)F)S(C)(=O)=O)nc4n3CC3CC3)c(C)n12` [Example 296, ~{N}-[(3~{S})-azepan-3-yl]-2-[1-(cyclopropylmethyl)-6-[difluoromethyl (methylsulfonyl)amino]pyrrolo[2,3-b]pyridin-2-yl]-5-methoxy-3-methylimidazo[1,2-a]pyridine-7-carboxamide], for which the pIC50 is 4.61.

With `COc1cc(C(=O)N2[C@H]3CC[C@@H]2[C@H](N)C3)cc2nc(-c3cc4ccc(C5CCCCN5C(=O)N5CCCC5)nc4n3CC3CC3)c(C)n12` (stereo partly shown) [Example 544, [(1~{R},2~{R},4~{S})-2-amino-7-azabicyclo [2.2.1]heptan-7-yl]-[2-[1-(cyclopropylmethyl)-6-[1-(pyrrolidine-1-carbonyl)piperidin-2-yl]pyrrolo [2,3-b]pyridin-2-yl]-5-methoxy-3-methylimidazo [1,2-a]pyridin-7-yl] methanone], the pIC50 was 6.44.

For the compound `COc1cc(C(=O)N2[C@H]3CC[C@@H]2[C@H](N)C3)cc2nc(-c3cc4ccc([C@@H](C)NC(=O)c5ccc(Cl)nc5)nc4n3CC3CC3)c(C)n12` [Example 48, ~{N}-[(1~{R})-1-[2-[7-[(1~{R},2~{R},4~{S})-2-amino-7-azabicyclo[2.2.1]heptane-7-carbonyl]-5-methoxy-3-methylimidazo [1,2-a]pyridin-2-yl]-1-(cyclopropylmethyl)pyrrolo[2,3-b]pyridin-6-yl]ethyl]-6-chloropyridine-3-carboxamide], the pIC50 was 7.46.

Take `COc1cc(C(=O)N2[C@H]3CC[C@@H]2[C@H](N)C3)cc2nc(-c3cc4ccc(N5c6ccccc6CS5(=O)=O)nc4n3CC3CC3)c(C)n12` [Example 467, [(1~{R},2~{R},4~{S})-2-amino-7-azabicyclo [2.2.1]heptan-7-yl]-[2-[1-(cyclopropylmethyl)-6-(2,2-dioxo-3~{H}-2,1-benzothiazol-1-yl)pyrrolo [2,3-b]pyridin-2-yl]-5-methoxy-3-methylimidazo [1,2-a]pyridin-7-yl] methanone]: the pIC50 was 6.44.

For `COc1cc(C(=O)N2[C@H]3CC[C@@H]2[C@H](N)C3)cc2nc(-c3cc4ccc([C@@H](C)NC(=O)OC(C)C)nc4n3CC3CC3)c(C)n12` [Example 254, propan-2-yl~{N}-[(1~{R})-1-[2-[7-[(1~{R}, 2~{R},4~{S})-2-amino-7-azabicyclo[2.2.1]heptane-7-carbonyl]-5-methoxy-3-methylimidazo [1,2-a]pyridin-2-yl]-1-(cyclopropylmethyl)pyrrolo [2,3-b]pyridin-6-yl]ethyl] carbamate], the pIC50 is 6.96. Turning to `CCc1ccc2cc(-c3nc4cc(C(=O)N5[C@H]6CC[C@@H]5[C@H](N)C6)cc(OC)n4c3N)n(CC3CC3)c2n1` [Example 552, [(1~{R},2~{R},4~{S})-2-amino-7-azabicyclo [2.2.1]heptan-7-yl]-[3-amino-2-[1-(cyclopropylmethyl)-6-ethylpyrrolo[2,3-b]pyridin-2-yl]-5-methoxyimidazo [1,2-a]pyridin-7-yl]methanone], the pIC50 was 6.82.

For the compound `COc1cc(C(=O)N2[C@H]3CC[C@@H]2[C@H](N)C3)cc2nc(-c3cc4ccc([C@@H](C)NC(=O)C5(O)CCC5)nc4n3CC3CC3)c(C)n12` [Example 95, ~{N}-[(1~{R})-1-[2-[7-[(1~ {R},2~{R},4~{S})-2-amino-7-azabicyclo[2.2.1]heptane-7-carbonyl]-5-methoxy-3-methylimidazo[1,2-a]pyridin-2-yl]-1-(cyclopropylmethyl)pyrrolo [2,3-b]pyridin-6-yl]ethyl]-1-hydroxycyclobutane-1-carboxamide], the pIC50 was 7.36.

As to `COc1cc(C(=O)N2[C@H]3CC[C@@H]2[C@H](N)C3)cc2nc(-c3cc4ccc([C@@H](C)NC(=O)C5(C)CC5)nc4n3CC3CC3)c(C)n12` [Example 151, ~{N}-[(1~{R})-1-[2-[7-[(1~{R},2~{R},4~{S})-2-amino-7-azabicyclo[2.2.1]heptane-7-carbonyl]-5-methoxy-3-methylimidazo [1,2-a]pyridin-2-yl]-1-(cyclopropylmethyl)pyrrolo [2,3-b]pyridin-6-yl]ethyl]-1-methylcyclopropane-1-carboxamide], the pIC50 is 7.22. As to `COc1cc(C(=O)N2CCC[C@@H](N)C2)cc2nc(-c3cc4ccc(N(C(F)F)S(C)(=O)=O)nc4n3CC3CC3)c(C3CC3)n12` [Example 391, ~{N}-[2-[7-[(3~{R})-3-aminopiperidine-1-carbonyl]-3-cyclopropyl-5-methoxyimidazo [1,2-a]pyridin-2-yl]-1-(cyclopropylmethyl)pyrrolo [2,3-b]pyridin-6-yl]-~{N}-(difluoromethyl) methanesulfonamide], the pIC50 is 6.98. In the case of `COc1cc(C(=O)N2[C@H]3CC[C@@H]2[C@H](N)C3)cc2nc(-c3cc4ccc([C@@H](C)NC(=O)C5(OC)CC5)nc4n3CC3CC3)c(C)n12` [Example 42, ~{N}-[(1~{R})-1-[2-[7-[(1~{R},2~{R},4~{S})-2-amino-7-azabicyclo [2.2.1]heptane-7-carbonyl]-5-methoxy-3-methylimidazo [1,2-a]pyridin-2-yl]-1-(cyclopropylmethyl)pyrrolo[2,3-b]pyridin-6-yl]ethyl]-1-methoxycyclopropane-1-carboxamide], the pIC50 is 7.63.

For `CCc1ccc2cc(-c3nc4cc(C(=O)N5[C@H]6CC[C@@H]5[C@H](N)C6)cc(OC)n4c3C)n(-c3cnc(C)s3)c2n1` [Example 511, [(1~{R},2~{R},4~{S})-2-amino-7-azabicyclo [2.2.1]heptan-7-yl]-[2-[6-ethyl-1-(2-methyl-1,3-thiazol-5-yl)pyrrolo [2,3-b]pyridin-2-yl]-5-methoxy-3-methylimidazo [1,2-a]pyridin-7-yl] methanone], the negative logarithm of the IC50 (pIC50) was 5.33. As for `COc1cc(C(=O)N2[C@H]3CC[C@@H]2[C@H](N)C3)cc2nc(-c3cc4ccc([C@@H](C)NC(=O)C(C)(C)C)nc4n3CC3CC3)c(C)n12` [Example 177, N—((R)-1-(2-(7-((1R,2R,4S)-2-amino-7-azabicyclo[2.2.1]heptane-7-carbonyl)-5-methoxy-3-methylimidazo[1,2-a]pyridin-2-yl)-1-(cyclopropylmethyl)-1H-pyrrolo[2,3-b]pyridin-6-yl)ethyl)pivalamide], the pIC50 was 7.12.

On to `CCc1ccc2cc(-c3nc4cc(C(=O)N5CCC[C@@H](N)C5)ccn4c3C3CC3)n(CC3CC3)c2n1` [Example 597, [(3~{R})-3-aminopiperidin-1-yl]-[3-cyclopropyl-2-[1-(cyclopropylmethyl)-6-ethylpyrrolo[2,3-b]pyridin-2-yl]imidazo[1,2-a]pyridin-7-yl]methanone], for which the pIC50 is 6.52. For `COc1cc(C(=O)N2[C@H]3CC[C@@H]2[C@H](N)C3)cc2nc(-c3cc4ccc(C(C)(C)NC(=O)C(C)(C)C)nc4n3CC3CC3)c(C)n12` [Example 168, ~{N}-[2-[2-[7-[(1~{R},2~{R},4~{S})-2-amino-7-azabicyclo[2.2.1]heptane-7-carbonyl]-5-methoxy-3-methylimidazo [1,2-a]pyridin-2-yl]-1-(cyclopropylmethyl)pyrrolo [2,3-b]pyridin-6-yl]propan-2-yl]-2,2-dimethylpropanamide], the pIC50 was 6.77.

One may read the pIC50 as the IC50 on a negative log10 scale, so that one unit is a factor of ten.
